Entries after “also recorded” stand apart in the source; their conditions may differ. Marks after values point to notes of the source that are not given here.
Experiments:
COX–2 = target: T1, COX–2 (Homo sapiens, UniProt P35354); test: PGE2 formation in LPS stimulated primary human monocytes (24 h, LC-MS); assay type: cell-based; conditions: up to 1 μM
T1 sequence (P35354 18-604): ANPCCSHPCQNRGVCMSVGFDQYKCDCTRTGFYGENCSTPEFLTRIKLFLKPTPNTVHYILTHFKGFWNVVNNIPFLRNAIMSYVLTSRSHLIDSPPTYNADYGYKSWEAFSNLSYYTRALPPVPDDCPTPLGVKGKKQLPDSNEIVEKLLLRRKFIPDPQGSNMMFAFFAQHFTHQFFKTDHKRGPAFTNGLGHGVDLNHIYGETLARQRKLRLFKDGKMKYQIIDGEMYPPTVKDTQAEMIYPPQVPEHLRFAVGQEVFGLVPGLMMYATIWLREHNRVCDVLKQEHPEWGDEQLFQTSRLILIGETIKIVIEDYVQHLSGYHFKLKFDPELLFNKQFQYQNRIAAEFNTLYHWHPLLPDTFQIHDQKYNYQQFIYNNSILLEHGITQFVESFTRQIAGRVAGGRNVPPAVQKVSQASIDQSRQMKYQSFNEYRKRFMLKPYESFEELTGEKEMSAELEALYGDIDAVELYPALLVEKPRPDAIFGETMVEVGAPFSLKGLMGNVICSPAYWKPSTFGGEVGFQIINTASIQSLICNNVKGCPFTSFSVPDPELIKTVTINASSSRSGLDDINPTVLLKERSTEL
Experimental: (§1) The in vitro assays were performed as described [6, 16, 18] and COX metabolites were quantified by LC-MS [18].
(§2) Primary human monocytes were freshly isolated from human blood. Blood was collected from healthy human subjects after written informed consent was obtained. […] After 24 h, the supernatant was sampled for LC-MS and cells were collected for the COX–2 expression analysis by Western Blotting.
(§3) GraphPad Prism 5.0 (GraphPad Software, San Diego, USA) was used for data analysis, the fitting of dose response curves and calculation of the IC50 values. Statistical differences were determined by Dunnetts test (LPS vs. other groups).

[1] = test system: arachidonic acid (AA) cascade; test: liver tissue oxylipin/PG levels in LPS induced sepsis in mice; assay type: in vivo, C57BL/6N mice; conditions: liver tissue 24 h after LPS treatment;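 note: male C57BL/6N mice pretreated i.p. with polyphenols at 100 mg/kg bw or vehicle before LPS, liver oxylipins measured by LC-MS after solid-phase extraction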
Text: Twelve week old male C57BL/6N mice (Charles River, Sulzfeld, Germany) were used for all experiments. C57BL/6 male mice (H2^b, 11–13 weeks of age) were obtained from Charles River (Sulzfeld, Germany). Animals were cared for in accordance with the institution’s guidelines for experimental animals and with the guidelines of the American Physiological Society. […] Mice were monitored closely and if they appeared compromised (i.e. inactivity, no intake of food or water) after compound or LPS injection the experiment was terminated.
Oxylipin levels were analyzed in plasma and tissues by LC-MS following SPE extraction of 200 μl plasma or tissue homogenate (50 mg) on Chromabond C18 ec cartridges (Machery-Nagel, Düren, Germany) [19].
as §3

ovine recombinant COX–1 = target: T2, ovine recombinant COX–1 (Ovis aries, UniProt P05979); test: cell-free COX–1 enzyme assay (PGE2 formation, LC-MS); assay type: biochemical; design: purchased Cayman Chemicals/ Biomol, Hamburg, Germany
T2 sequence (P05979 25-600): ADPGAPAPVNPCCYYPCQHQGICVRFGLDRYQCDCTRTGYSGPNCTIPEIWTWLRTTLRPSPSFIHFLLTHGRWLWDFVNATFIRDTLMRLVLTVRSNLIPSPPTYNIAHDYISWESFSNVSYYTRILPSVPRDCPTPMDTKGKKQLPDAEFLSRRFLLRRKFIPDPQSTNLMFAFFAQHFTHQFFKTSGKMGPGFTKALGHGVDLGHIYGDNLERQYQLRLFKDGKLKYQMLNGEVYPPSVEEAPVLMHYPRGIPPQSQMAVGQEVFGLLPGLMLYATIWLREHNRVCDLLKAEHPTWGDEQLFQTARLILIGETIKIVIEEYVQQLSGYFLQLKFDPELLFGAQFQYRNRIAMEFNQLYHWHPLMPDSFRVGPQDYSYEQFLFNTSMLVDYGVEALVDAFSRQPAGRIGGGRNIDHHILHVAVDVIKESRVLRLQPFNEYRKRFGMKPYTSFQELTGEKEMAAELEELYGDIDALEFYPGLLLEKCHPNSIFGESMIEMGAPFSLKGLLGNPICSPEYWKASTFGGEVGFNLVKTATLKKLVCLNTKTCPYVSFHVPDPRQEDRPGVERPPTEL
Experimental: as §1, §2, §3

Oc1ccc(/C=C/c2cc(O)cc3c2[C@@H](c2cc(O)cc(O)c2)[C@H](c2ccc(O)cc2)O3)cc1 [ε-Viniferin, ε-viniferin]
inhibition, primary monocytes (COX–2): inhibition < 50% (up to 1 μM) | 4,5-DiHDPE concentration ([1]; mean): 20 nM | 4-HDHA concentration ([1]; mean): 6.8 nM | 5(6)-EpETrE concentration ([1]; mean): 45 nM | 5,6-DiHETE concentration ([1]; mean): < 0.30 nM | 5,6-DiHETrE concentration ([1]; mean): 1.9 nM | 5-HEPE concentration ([1]; mean): 1.2 nM | 5-HETE concentration ([1]; mean): 1.2 nM | 5-iPF2α concentration ([1]; mean): 2.3^‡ nM | 5-oxo-ETE concentration ([1]; mean): 14 nM | 6-keto-PGF1α concentration ([1]; mean): 29 nM | 7,8-DiHDPE concentration ([1]; mean): 1.9 nM | 7-HDHA concentration ([1]; mean): 1.7 nM | 8(9)-EpETE concentration ([1]; mean): 1.5 nM | 8(9)-EpETrE concentration ([1]; mean): 9.8 nM | 8,9-DiHETE concentration ([1]; mean): 1.2 nM | 8,9-DiHETrE concentration ([1]; mean): 4.4 nM | 8,15-DiHETE concentration ([1]; mean): < 0.80 nM | 8-HDHA concentration ([1]; mean): 9.0 nM | 8-HEPE concentration ([1]; mean): < 0.60 nM | 8-HETE concentration ([1]; mean): 4.2 nM | 8-iPF2α concentration ([1]; mean): < 0.10 nM | 9(10)-EpODE concentration ([1]; mean): 9.2 nM | 9(10)-EpOME concentration ([1]; mean): 84 nM | 9(10)-Epoxystearic acid concentration ([1]; mean): 66 nM | 9,10,13-TriHOME concentration ([1]; mean): 16 nM | 9,10-DiHODE concentration ([1]; mean): 3.9 nM | 9,10-DiHOME concentration ([1]; mean): 43^* nM | 9,10-Dihydroxystearic acid concentration ([1]; mean): 170 nM | 9,12,13-TriHOME concentration ([1]; mean): 110 nM | 9-HETE concentration ([1]; mean): 2.9 nM | 9-HODE concentration ([1]; mean): 250 nM | 9-HOTrE concentration ([1]; mean): 5.0 nM | 9-oxo-ODE concentration ([1]; mean): 53 nM | 10(11)-EpDPE concentration ([1]; mean): 15 nM | 10,11-DiHDPE concentration ([1]; mean): 2.2^† nM | 10-HDHA concentration ([1]; mean): 2.2 nM | 11(12)-EpETE concentration ([1]; mean): 2.0 nM | 11(12)-EpETrE concentration ([1]; mean): 27 nM | 11,12-DiHETE concentration ([1]; mean): 1.0^* nM | 11,12-DiHETrE concentration ([1]; mean): 5.5^† nM | 11-HDHA concentration ([1]; mean): 2.8 nM | 11-HETE concentration ([1]; mean): 7.0 nM | 12(13)-EpODE concentration ([1]; mean): 3.9 nM | 12(13)-EpOME concentration ([1]; mean): 72 nM | 12,13-DiHODE concentration ([1]; mean): < 2.0 nM | 12,13-DiHOME concentration ([1]; mean): 45^‡ nM | 12-HEPE concentration ([1]; mean): 6.8 nM | 12-HETE concentration ([1]; mean): 32 nM | 13(14)-EpDPE concentration ([1]; mean): 12 nM | 13,14-DiHDPE concentration ([1]; mean): 1.6^‡ nM | 13,14-dihydro-15-keto-PGE1 concentration ([1]; mean): 0.62 nM | 13,14-dihydro-15-keto-PGF2α concentration ([1]; mean): 7.0 nM | 13-HDHA concentration ([1]; mean): 3.8 nM | 13-HODE concentration ([1]; mean): 230 nM | 13-HOTrE concentration ([1]; mean): 8.5 nM | 13-oxo-ODE concentration ([1]; mean): 9.4 nM | 14(15)-EpETE concentration ([1]; mean): 1.8 nM | 14(15)-EpETrE concentration ([1]; mean): 21 nM | 14,15-DiHETE concentration ([1]; mean): 2.1^‡ nM | 14,15-DiHETrE concentration ([1]; mean): 12^‡ nM | 14-HDHA concentration ([1]; mean): 18 nM | 15(16)-EpODE concentration ([1]; mean): 12 nM | 15(S)-HETrE concentration ([1]; mean): 5.2 nM | 15,16-DiHODE concentration ([1]; mean): 17^† nM | 15-HEPE concentration ([1]; mean): 1.7 nM | 15-HETE concentration ([1]; mean): 14 nM | 15-oxo-ETE concentration ([1]; mean): 2.8 nM | 16(17)-EpDPE concentration ([1]; mean): 11 nM | 16,17-DiHDPE concentration ([1]; mean): 3.0^‡ nM | 16-HDHA concentration ([1]; mean): 2.4 nM | 17(18)-EpETE concentration ([1]; mean): 3.2 nM | 17,18-DiHETE concentration ([1]; mean): 5.6^‡ nM | 17-HDHA concentration ([1]; mean): 9.0 nM | 18-HEPE concentration ([1]; mean): 1.6 nM | 19(20)-EpDPE concentration ([1]; mean): 17 nM | 19,20-DiHDPE concentration ([1]; mean): 17^‡ nM | 20-HDHA concentration ([1]; mean): 9.1^* nM | 20-HEPE concentration ([1]; mean): 4.1^‡ nM | 20-HETE concentration ([1]; mean): < 2.6 nM | EKODE concentration ([1]; mean): 34 nM | PGD1 concentration ([1]; mean): 0.91 nM | PGD2 concentration ([1]; mean): 13 nM | PGE1 concentration ([1]; mean): 0.88 nM | PGE2 concentration ([1]; mean): 4.2 nM | PGF1α concentration ([1]; mean): 2.5 nM | TXB2 concentration ([1]; mean): 8.4 nM | TxB3 concentration ([1]; mean): < 0.05 nM | dihomo-PGF2α concentration ([1]; mean): 1.0 nM | PGF2α concentration ([1]; mean (first listing, r6)): 12 nM | PGF2α concentration ([1]; mean (second listing, r9)): 12 nM | effect on COX–1 dependent PGE2 formation, cell-free enzyme assay (ovine recombinant COX–1): dose-dependently decreased; also recorded: inhibited | IC50 (ovine recombinant COX–1; calculated based on PGE2, n = 3, read-out: IC50 (95% CI), COX–1 enzyme assay): 1600 nM

— PMC4594923, “Food Polyphenols Fail to Cause a Biologically Relevant Reduction of COX-2 Activity” (PLoS ONE, 2015)
